The target in this test is T1, human TSHR (Homo sapiens, UniProt P16473).
T1 construct: expressed in transfected cells
T1 sequence (P16473 21-764): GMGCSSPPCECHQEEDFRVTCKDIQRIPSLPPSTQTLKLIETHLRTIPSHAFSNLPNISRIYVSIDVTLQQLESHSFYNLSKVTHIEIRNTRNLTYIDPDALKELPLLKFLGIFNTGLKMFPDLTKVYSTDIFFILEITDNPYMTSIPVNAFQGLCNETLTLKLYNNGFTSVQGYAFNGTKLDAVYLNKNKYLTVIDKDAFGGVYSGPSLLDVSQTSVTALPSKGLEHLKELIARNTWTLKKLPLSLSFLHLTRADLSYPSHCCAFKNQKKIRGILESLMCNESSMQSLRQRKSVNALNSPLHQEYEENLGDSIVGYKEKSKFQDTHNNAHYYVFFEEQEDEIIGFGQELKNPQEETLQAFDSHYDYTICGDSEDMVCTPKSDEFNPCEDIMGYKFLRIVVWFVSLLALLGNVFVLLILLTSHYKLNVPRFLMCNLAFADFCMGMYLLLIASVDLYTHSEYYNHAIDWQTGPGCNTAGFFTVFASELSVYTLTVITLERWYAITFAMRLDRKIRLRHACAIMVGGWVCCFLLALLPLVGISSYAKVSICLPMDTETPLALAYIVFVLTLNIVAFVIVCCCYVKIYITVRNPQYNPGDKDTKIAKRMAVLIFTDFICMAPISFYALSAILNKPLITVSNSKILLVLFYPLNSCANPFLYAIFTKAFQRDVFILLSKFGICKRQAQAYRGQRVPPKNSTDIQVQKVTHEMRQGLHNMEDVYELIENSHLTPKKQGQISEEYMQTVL
Briefly: Antagonist activity using TSH-induced cAMP generation in human TSHR-stably expressing CHO cells. It is filed as cell-based. The conditions noted are these: human TSH 50 ng/mL. As for the experimental part: Measurement of antagonist activity using TSH-induced cAMP generation in human TSHR-stably expressing CHO cells as an indicator
The gene sequence (reference number: NM_000369.2) of a human TSHR was inserted into multiple cloning sites of pcDNA3.1 (+). Prepared plasmid vectors were introduced into CHO cells using a lipofection method, and human TSHR-stably expressing CHO cells were established. Obtained cells were seeded in a 96-well poly-D-lysine-coated plate at 5 × 10^4 cells/well and cultured in an F12 culture medium containing 10%FBS, 400 µg/mL of G418, 50 U/mL of penicillin, and 50 µg/mL of streptomycin under conditions of 37°C and 5% CO2 for one day. After the culture medium was removed, the cells were washed twice with 100 µL of an assay buffer solution (Hanks' Balanced Salt Solution containing 20 mM HEPES and 1 mM IBMX) per well. 30 µL of a test compound-containing assay buffer solution was added to the well and incubated at room temperature for 15 minutes. Next, 30 µL of an assay buffer solution containing human TSH (final concentration: 50 ng/mL, R&D Systems, Inc.) was added thereto and incubated at 37°C for one hour. A supernatant was removed, a Lysis and Detection Buffer 2(Cisbio) was added thereto, and the mixture was incubated at room temperature for one hour to prepare a cell lysate. According to the instruction manual of a cAMP Gs HiRange kit (Cisbio), the cell lysate, d2-labeled cAMP, and anti-cAMP Europium Cryptate labeled antibodies (Cisbio) were reacted together in a 384-well white microplate. Next, fluorescence intensity ratios (measurement wavelengths: 665 nm/620 nm) were measured using a multi-plate reader (PHERAstar FSX, BMG LABTECH, Japan). The fluorescence intensity ratio of each sample was converted to a cAMP content using a standard curve. The cAMP content was converted as a percentage of the control value to calculate a cAMP generation rate. The cAMP generation rates were plotted against the test compound concentrations using Prism (Graph Pad Software Inc.) to calculate IC50 values. The IC50's of the individual test compounds are shown in the above tables. In the tables, IC50 < 0.3 µM was denoted as A, and 0.3 µM ≤ IC50 < 30 µM was denoted as B. Cases where the IC50 values were not calculated for test compounds from which activity was recognized are denoted as C.
Molecule `CC(C)(C)OC(=O)Nc1ccc(-c2cccnc2CNC(N)=O)c(CN2CCOCC2)c1F` [Example F-4, tert-Butyl (2-fluoro-3-(morpholinomethyl)-4-(2-(ureidomethyl)pyridin-3-yl)phenyl)carbamate] displayed an IC50 of 300 to 30000 nM.

Molecule `CC(C)(COCc1ccccc1)OC(=O)Nc1ccc(-c2cccnc2CNC(N)=O)c(Cc2ccccc2F)c1F` [Example A-20, 1-(Benzyloxy)-2-methylpropan-2-yl (2-fluoro-3-(2-fluorobenzyl)-4-(2-(ureidomethyl)pyridin-3-yl)phenyl)carbamate] returned an IC50 of less than 300 nM.

With `Cc1ccnc(CNC(N)=O)c1-c1ccc(NC(=O)OC(C)(C)C)c(F)c1Cc1ccccc1` [Example A-9, tert-Butyl (3-benzyl-2-fluoro-4-(4-methyl-2-(ureidomethyl)pyridin-3-yl)phenyl)carbamate], the IC50 lay in the range of 300 to 30000 nM.

The molecule `CC(C)C(=O)Nc1ccc(-c2cccnc2CNC(N)=O)c(Cc2ccccc2F)c1F` [Example G-2, N-(2-Fluoro-3-(2-fluorobenzyl)-4-(2-(ureidomethyl)pyridin-3-yl)phenyl)isobutylamide] had an IC50 of 300 to 30000 nM.

`N#Cc1ccccc1Cc1c(-c2cccnc2CNC(N)=O)ccc(NC(=O)OC2CC3CCC2CC3)c1F` (centres unmarked) [Example A-38, Bicyclo[2.2.2]octan-2-yl (3-(2-cyanobenzyl)-2-fluoro-4-(2-(ureidomethyl)pyridin-3-yl)phenyl)carbamate] yielded an IC50 of 300 to 30000 nM.

`CC(C)(C)OC(=O)Nc1c(F)cc(-c2cccnc2CNC(N)=O)c(Cc2ccccc2F)c1F` [Example A-14, tert-Butyl (2,6-difluoro-3-(2-fluorobenzyl)-4-(2-(ureidomethyl)pyridin-3-yl)phenyl)carbamate] returned an IC50 of less than 300 nM.

Molecule `NC(=O)NCc1ncccc1-c1ccc(NC(=O)C2CC(F)(F)C2)c(F)c1Cc1ccccc1F` [Example G-4, 3,3-Difluoro-N-(2-fluoro-3-(2-fluorobenzyl)-4-(2-(ureidomethyl)pyridin-3-yl)phenyl)cyclobutane-1-carboxamide] yielded an IC50 of less than 300 nM.

Molecule `C[C@@H](OC(=O)Nc1ccc(-c2ccnnc2CCC(N)=O)c(Cc2ccccc2F)c1F)C1CC1` [Example C-6, (R)-1-Cyclopropylethyl (4-(3-(3-amino-3-oxopropyl)pyridazin-4-yl)-2-fluoro-3-(2-fluorobenzyl)phenyl)carbamate] showed an IC50 of less than 300 nM.

With `N#CC1(COC(=O)Nc2ccc(-c3cccnc3CNC(N)=O)c(Cc3ccccc3F)c2F)CC1` [Example A-8], the IC50 was less than 300 nM.

In turn, `CC(C)(C)OC(=O)Nc1ccc(-c2cccnc2CNC(N)=O)c(CC2CC2)c1F` [Example F-9, tert-Butyl (3-(cyclopropylmethyl)-2-fluoro-4-(2-(ureidomethyl)pyridin-3-yl)phenyl)carbamate] yielded an IC50 of 300 to 30000 nM.

`CN(C)CCCOC(=O)Nc1ccc(-c2cccnc2CNC(N)=O)c(Cc2ccccc2F)c1F` [Example A-30, 3-(Dimethylamino)propyl (2-fluoro-3-(2-fluorobenzyl)-4-(2-(ureidomethyl)pyridin-3-yl)phenyl)carbamate] displayed an IC50 of 300 to 30000 nM.

On to `NC(=O)NCc1ncccc1-c1ccc(NC(=O)OC2CC(F)(F)C2)c(F)c1Cc1ccccc1F` [Example A-6], for which the IC50 was less than 300 nM.

Molecule `CC(C)(C)OC(=O)Nc1ccc(-c2ccnnc2CCC(N)=O)c(Cc2ccccc2F)c1F` [Example C-4, tert-Butyl (4-(3-(3-amino-3-oxopropyl)pyridazin-4-yl)-2-fluoro-3-(2-fluorobenzyl)phenyl)carbamate] had an IC50 of less than 300 nM.

In turn, `C[C@H](OC(=O)Nc1ccc(-c2cccnc2CCC(N)=O)c(C(=O)c2ccccc2F)c1F)C(F)(F)F` [Example E-4, (S)-1,1,1-Trifluoropropan-2-yl (4-(2-(3-amino-3-oxopropyl)pyridin-3-yl)-2-fluoro-3-(2-fluorobenzoyl)phenyl)carbamate] registered an IC50 of less than 300 nM.

`CC1(OC(=O)Nc2ccc(-c3cccnc3CNC(N)=O)c(Cc3ccccc3F)c2F)CC1` [Example A-4, 1-Methylcyclopropyl (2-fluoro-3-(2-fluorobenzyl)-4-(2-(ureidomethyl)pyridin-3-yl)phenyl)carbamate] showed an IC50 of less than 300 nM.

For the molecule `Cc1nnccc1-c1ccc(NC(=O)OC(C)(C)C)c(F)c1Cc1ccccc1F` [Example C-9, tert-Butyl (2-fluoro-3-(2-fluorobenzyl)-4-(3-methylpyridazin-4-yl)phenyl)carbamate], the IC50 is 300 to 30000 nM.

Take `C[C@H](OC(=O)Nc1ccc(-c2cccnc2CNC(N)=O)c(Oc2ccccc2F)c1F)C(F)(F)F` [Example B-3, (S)-1,1,1-Trifluoropropan-2-yl (2-fluoro-3-(2-fluorophenoxy)-4-(2-(ureidomethyl)pyridin-3-yl)phenyl)carbamate]: the 50% inhibitory concentration (IC50) is less than 300 nM.

For the molecule `C[C@@H](OC(=O)Nc1ccc(-c2cccnc2CCC(N)=O)c(Cc2ncccc2F)c1F)C1CC1` [Example F-3, (R)-1-Cyclopropylethyl (4-(2-(3-amino-3-oxopropyl)pyridin-3-yl)-2-fluoro-3-((3-fluoropyridin-2-yl)methyl)phenyl)carbamate], the IC50 is less than 300 nM.

`CC(C)(C)OC(=O)Nc1ccc(-c2cccnc2CNC(N)=O)c(Cc2ccccc2F)c1F` [Example A-1, tert-Butyl (2-fluoro-3-(2-fluorobenzyl)-4-(2-(ureidomethyl)pyridin-3-yl)phenyl)carbamate] came in with a 50% inhibitory concentration (IC50) of less than 300 nM.

`NC(=O)NCc1ncccc1-c1ccc(NC(=O)C2CC2)c(F)c1Cc1ccccc1F` [Example G-3, N-(2-Fluoro-3-(2-fluorobenzyl)-4-(2-(ureidomethyl)pyridin-3-yl)phenyl)cyclopropanecarboxamide] had an IC50 of 300 to 30000 nM.

Take `CC(C)(C)OC(=O)Nc1ccc(-c2cccnc2CNC(N)=O)c(Cc2ccccc2OCc2ccccc2)c1F` [Example A-18, tert-Butyl (3-(2-(benzyloxy)benzyl)-2-fluoro-4-(2-(ureidomethyl)pyridin-3-yl)phenyl)carbamate]: the IC50 was in the range of 300 to 30000 nM.

Take `NC(=O)NCc1ncccc1-c1ccc(NC(=O)OC[C@H]2C[C@@H]2F)c(F)c1Cc1ccccc1F` (relative stereo) [Example A-32]: the IC50 is less than 300 nM.

Molecule `C[C@H](OC(=O)Nc1ccc(-c2cccnc2CCC(N)=O)c(C(=O)c2ccccc2F)c1F)C1CC1` [Example E-5, (S)-1-Cyclopropylethyl (4-(2-(3-amino-3-oxopropyl)pyridin-3-yl)-2-fluoro-3-(2-fluorobenzoyl)phenyl)carbamate] had an IC50 of less than 300 nM.

The molecule `NC(=O)NCc1nnccc1-c1ccc(NC(=O)OC2(C3CC3)CC2)c(F)c1Cc1ccccc1F` [Example C-10] came in with an IC50 of 300 to 30000 nM.

In the case of `CC(C)(C)OC(=O)Nc1ccc(-c2cccnc2CNC(N)=O)c(Oc2ccccc2F)c1F` [Example B-2, tert-Butyl (2-fluoro-3-(2-fluorophenoxy)-4-(2-(ureidomethyl)pyridin-3-yl)phenyl)carbamate], the IC50 was less than 300 nM.

The molecule `CC(C)(C)OC(=O)Nc1ccc(-c2cccnc2CCC(N)=O)c(Cc2ccccc2C#N)c1F` [Example A-39, tert-Butyl (4-(2-(3-amino-3-oxopropyl)pyridin-3-yl)-3-(2-cyanobenzyl)-2-fluorophenyl)carbamate] came in with an IC50 of less than 300 nM.
